Source: publication PMC5750217 (Nature Communications, 2018)
Positions count from the first letter of the chain named.

Columns and labels:
[1] = target: T1, A1-T459C (mutant ASCT1) (Homo sapiens, UniProt P43007, T459C); test: Two electrode voltage clamp, substrate-activated anion current in oocytes expressing A1-T459C; format: cell-based; details: for EC50: A1-T459C in oocytes, NO3−-containing buffer, current at +60 mV
T1 construct: expressed in transfected cells; host or cells: Xenopus laevis oocytes (cRNA injection)
T1 sequence (P43007 1-532 T459C): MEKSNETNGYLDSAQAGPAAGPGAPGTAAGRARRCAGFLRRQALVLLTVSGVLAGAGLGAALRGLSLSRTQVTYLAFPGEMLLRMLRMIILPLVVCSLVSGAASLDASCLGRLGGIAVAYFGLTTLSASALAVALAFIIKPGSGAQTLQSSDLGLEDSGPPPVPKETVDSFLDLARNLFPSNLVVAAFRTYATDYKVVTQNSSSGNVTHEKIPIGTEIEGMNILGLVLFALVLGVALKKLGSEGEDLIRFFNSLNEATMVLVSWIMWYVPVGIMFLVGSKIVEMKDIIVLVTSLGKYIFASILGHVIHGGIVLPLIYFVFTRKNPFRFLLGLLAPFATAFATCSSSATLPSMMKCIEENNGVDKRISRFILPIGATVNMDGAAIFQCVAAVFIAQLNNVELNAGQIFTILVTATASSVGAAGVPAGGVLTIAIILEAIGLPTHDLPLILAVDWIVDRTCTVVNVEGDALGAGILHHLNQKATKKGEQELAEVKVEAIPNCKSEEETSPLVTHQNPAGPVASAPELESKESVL
Procedure: All chemicals were obtained from Sigma unless otherwise stated. Stage V oocytes were harvested from female Xenopus laevis (frogs) which were obtained from Nasco (Fort Alkinson, USA). Frogs were anaesthetised with 6.5 mM tricaine neutralised with 7.14 mM sodium bicarbonate. After making an incision in the abdomen of the frog, ovarian sacs were removed and stored in OR-2 buffer (82.5 mM NaCl, 2 mM KCl, 1 mM MgCl2, 5 mM hemisodium HEPES, pH 7.5). This surgical procedure follows a protocol (#2016/970) approved by the University of Sydney Animal Ethics Committee under the Australian Code of Practice for the Care and Use of Animals for Scientific Purposes. To isolate oocytes, the ovarian sacs were cut into small sections before being digested by agitation with 2 mg per ml Collagenase A for 1–2 h. Following digestion, defoliculated oocytes were initially rinsed with OR-2, followed by frog Ringer’s solution (96 mM NaCl, 2 mM KCl, 1 mM MgCl2, 1.8 mM CaCl2, 5 mM hemisodium HEPES, pH 7.5). A total of 20 ng of transporter cRNA was injected into oocytes which were stored in frog Ringer’s solution supplemented with 0.1% gentamycin, 50 μg per ml tetracycline, 2.5 mM pyruvate and 0.5 mM theophylline at 16–18 °C.
After 2–4 days of microinjection, current recordings were made using the two electrode voltage clamp technique with a Geneclamp 500 amplifier (Axon Instruments, Foster City, CA) interfaced with a MacLab 2e chart recorder (ADI Instruments, Sydney, Australia) using the chart software, and a Digidata 1322A (Axon Instruments) controlled by an IBM-compatible computer using the pClamp software (version 10, Molecular Devices, Union City, CA). The current–voltage relationships for substrate elicited conductances were obtained by subjecting cells to 200 ms voltage pulses between −100 mV and + 60 mV in 10 mV steps. Current–voltage relationships were calculated by subtracting steady state current measurements in the absence of substrate from corresponding current measurements in the presence of substrate. […]

[2] = target: T2, ASCT1 (Homo sapiens, UniProt P43007); test: Radiolabelled uptake in oocytes expressing ASCT1; format: cell-based; details: 10 µM radiolabelled substrate, 10 min, room temperature
T2 construct: expressed in transfected cells; host or cells: Xenopus laevis oocytes (cRNA injection)
T2 sequence (P43007 1-532): T1 sequence (P43007 1-532 T459C) with C459T
Procedure: Uptake of L-[^3H]amino acids (PerkinElmer Life Sciences) was measured in oocytes expressing wild-type and mutant ASCT1, and uninjected oocytes. Five oocytes were incubated in Cl^−-containing buffer with 10 µM L-[^3H]amino acids at room temperature. After 10 min, uptake was terminated by three rapid washes in ice-cold Cl^−-containing buffer followed by lysis in 50 mM NaOH and 1% SDS. L-[^3H]amino acids were measured by scintillation counting using a Trilux beta counter (PerkinElmer Life Sciences).
Supplementary Figure 6. GltPh‐R397C, ASCT1 and ASCT2 are functional cysteine transporters. (a) […]
7.5) containing 1 µM of valinomycin and the 10µM 35S‐cysteine. […]
All data represent the mean of triplicate
(1 picture or pasted object on this page, not shown here)

| SMILES | GPNA % inhibition of L-serine activated current ([1]; A1-T459C, GPNA co-applied with EC50 of L-serine, maximal dose / 1 mM GPNA (Table 1 footnote)) | Radiolabelled substrate uptake into oocytes (in words) [2] | EC50 [1] |
| --- | --- | --- | --- |
| N[C@@H](CCC(=O)Nc1ccc([N+](=O)[O-])cc1)C(=O)O [GPNA, glutamyl-p-nitroanilide] | 18 ± 1% |  |  |
| NC(=O)CC[C@H](N)C(=O)O [L-glutamine] |  | no glutamine transport is observed | 260 ± 80 µM |
| N[C@@H](CO)C(=O)O [L-serine] |  | observe L-[^3H]serine uptake | 83 ± 6 µM |
| N[C@@H](CS)C(=O)O [L-cysteine] |  | robust L-[^35S]cysteine uptake |  |
